The record followed here is BindingDB's records for doi:10.1021/jm00087a023 (American Cyanamid, 1992).

Usually pIC50 stands for the negative decadic logarithm of the IC50, by convention in mol/L. A lower pIC50 goes with a large IC50.

A short description of the test: Inhibition of PAF induced platelet aggregation in rabbit.

pIC50: −log10 of the molar value.

For `CCCCCCCCCCCCCCOc1cccc(OP(=O)([O-])Oc2cccc(C[n+]3c[nH]c4ccccc43)c2)c1OC`, the pIC50 is 5.83.

In turn, `CCCCCCCCCCCCCCCCOCC(COP(=O)(O)Oc1cccc(C[P+](c2ccccc2)(c2ccccc2)c2ccccc2)c1)OC` (configuration not stated) showed a pIC50 of 4.87.
